Where two headings read alike, the source gives them in different places.
What was measured:
[1] = Population pharmacokinetic analysis of total plasma caspofungin in PICU patients (final two-compartment model, NONMEM, n = 29, 138 samples); assay type: in vivo, human (critically ill Chinese children); settings: for AUCss,24h, range / AUC(0-t): Bayesian posterior estimates; for AUC(0-t): plasma, iv, read-out: AUCss,24h, median
Method: (§1) A prospective clinical study was conducted among pediatrics in PICU from Children’s Hospital of Fudan University from 1 November 2022 to 30 December 2024. Children aged 3 months to 18 years who were admitted to PICU and received caspofungin therapy were eligible for inclusion. The study population encompassed critically ill children, including but not limited to those with liver insufficiency, hypoproteinemia, ECMO treatment, continuous renal replacement therapy (CRRT), or sepsis. Eligible subjects were administered a once-daily, 1-h intravenous infusion of caspofungin, following a body surface area (BSA)-based dosage regimen: a loading dose (LD) of 70 mg/m² (not to exceed 70 mg) on the first day, followed by 50 mg/m² (not exceed 70 mg) for maintenance dose (MD). BSA was calculated using the Mosteller formula: […] ([14]). All participants were provided written consent prior to participating in the study (US Clinical Trials, NCT04961593). Demographic and baseline clinical laboratory data were collected from the medical records, including age, sex, body weight, height, BSA, liver function, renal function, and various biomarkers reflecting immune system status. Information on bacterial cultures was also collected from microbiological laboratory reports. The biochemical measurements were derived from the most recent clinical laboratory results available within 7 days prior to the first caspofungin administration, reflecting the patient’s baseline physiological status.
Total caspofungin plasma concentrations were quantified using a liquid chromatography tandem mass spectrometry (LC-MS/MS) method. Blood samples were collected with EDTA-K2 as anticoagulant, and plasma was obtained by centrifugation at 4,000 g for 5 min and stored at −80°C until analysis, which would be performed within 30 days. The analysis was performed using the LC-40AD chromatographic system (Shimazu, Tokyo, Japan) combined with a 6500+ Triple Quad mass spectrometry system (AB Sciex, Framingham, USA). The separation is achieved on a Kinetex C18 column (2.1 × 50 mm, 2.6 μm) using a mobile phase composed of buffer (0.1% [vol/vol] formic acid and 5 mM ammonium acetate) and methanol (0.1% [vol/vol] formic acid). A volume of 40 μL of each plasma sample was precipitated with 260 μL of methanol with 0.4% formic acid. After centrifugation, 150 μL of the supernatants was mixed with 150 μL of water, and a volume of 1 μL of mixture was injected into the chromatographic system. The calibration range of caspofungin was linear over the range of 0.05 to 50 μg/mL with a lower limit of quantification (LLOQ) of 0.05 μg/mL. The samples with concentration that exceeded the upper limit were diluted into half by using blank plasma sample. All the analysis run met the requirement of M10 guideline for bioanalytical method validation and study sample analysis ([15]).
(§2) This study incorporated data from two study stages: the intensive sampling stage, followed by a sparse sampling stage (Fig. S1). In the first stage, the sampling time points were scheduled at pre-dose, 1, 2, 4, 8 h (if feasible) and 16 h (if feasible) following the most recent dose (the sixth administration after the first dose). The optimal sparse sampling design was then conducted to minimize the number of sampling points based on the defined constraint conditions. The designed sparse sampling time windows were pre-dose (0–1 h), 0.5–1.5, 6–7, and 23–24 h after the prior dose (the sixth administration after the first dose). The detailed optimal design process was described in the Supplemental material.
The PopPK model was developed using the non-linear mixed-effects modeling software NONMEM (version 7.5, ICON Development Solutions, Ellicott City, Maryland) with the first-order conditional estimation with interaction (FOCE-I) algorithm. […]

[2] = First-stage population pharmacokinetic model from intensive sampling (n = 14), used for optimal sampling design; assay type: in vivo, human (critically ill children)
Method: as §2
During the optimized sampling process, explicit constraint conditions were defined. In the second phase of our study, approximately 40 participants were to be recruited to receive a daily 1-hour intravenous infusion of caspofungin, with a BSA-based dosing strategy. Sampling was planned to take place within one single day after reaching steady-state levels. Given that the study subjects were pediatric patients, we aimed to minimize the number of sampling points.
Design software tools, including $DESIGN option in NONMEM and PopED (version 0.6.0, R package), were utilized to explore design elements such as sampling size, and sampling times. These tools evaluated uncertainties in PK parameter estimates based on the current sampling scheme and population pharmacokinetic (PPK) model. The designs were evaluated to ensure the precise estimation of typical PK parameters, defined as a relative standard error (RSE) of less than 50%.
Figure S1. Study flow diagram. In the first stage of the study, a population pharmacokinetic model was developed based on intensive sampling data collected from the prospective clinical study conducted among pediatrics with a small sample size in ICU. Secondly, design software tools, including $DESIGN in NONMEM and PopED, were utilized to optimize sampling design. During the third phase in our study, the optimized sampling scheme would be applied to a larger-scale study.

[3] = tested on: positive fungal culture (C. parapsilosis, C. albicans, C. tropicalis, C. guilliermondii); test: Fungal culture conversion during caspofungin therapy; assay type: in vivo, human (critically ill children); settings: thirteen patients with positive fungal culture during caspofungin infusion
Method: as §1, with “The biochemical measurements were derived from the most recent clinical laboratory results available within 7 days prior to the first caspofungin administration, reflecting the patient’s baseline physiological status.” left out

[4] = cited from earlier work
Description: Our results are consistent with three published pediatric PopPK studies that also employed a two-compartment model ([25][–][27]). In contrast, one other pediatric study employed a one-compartment model, probably due to its sparse PK data (48 subjects and 139 observations) ([28]). […] The b ... || Previous studies involving pediatric populations typically included body size on PK parameters. Among them, three studies ([25], [26], [28]) included BSA as a significant covariate on CL and V1 while one study ([27]) emphasized the effect of body weight. In our study, allometric BSA-based allometric scaling yielded lower OFV and AIC compared with weight, LBW, and FFM. The estimated BSA exponent for CL varied considerably across studies, likely reflecting differences in study populations.

[5] = published pediatric PK estimates

With `CC[C@H](C)C[C@H](C)CCCCCCCCC(=O)N[C@H]1C[C@@H](O)[C@@H](NCCN)NC(=O)[C@@H]2[C@@H](O)CCN2C(=O)[C@H]([C@H](O)CCN)NC(=O)[C@H]([C@H](O)[C@@H](O)c2ccc(O)cc2)NC(=O)[C@@H]2C[C@@H](O)CN2C(=O)[C@H]([C@@H](C)O)NC1=O` [caspofungin] the “AUCss,24h, range” value ([1]; ECMO group, n = 4) was 17.20 to 176.04 µg·h/mL, the “AUCss,24h, range” value ([1]; non-ECMO group, n = 25) was 53.18 to 380.95 µg·h/mL and the “Increase in V1 associated with ECMO” value ([1]; final PopPK model) was 18.2 fold. For the same compound, the “Q (inter-compartment exchange rate), estimate” value ([1]; final PopPK model) was 1.01 L/h, the “V2 (peripheral volume), estimate” value ([1]; final PopPK model) was 1.63 L and the “V2, bootstrap (n = 1,000) median [95% CI]” value ([1]; final PopPK model, bootstrap n = 1,000) was 1.89 [1.20–4.29] L. For the same compound, the “V1 (volume of the central compartment), estimate” value ([1]; final PopPK model, scaled to 0.79 m^2 (BSA exponent 1), without ECMO) was 2.22 L, the AUC(0-t) ([1]; human, ECMO group, n = 4) was 117 µg·h/mL and the AUC(0-t) ([1]; human, non-ECMO group, n = 25) was 194 µg·h/mL. The clearance ([1]; human, final PopPK model, typical value scaled to a 0.79 m^2 individual (BSA exponent 0.66), 1-h iv infusion once daily, total plasma, LC-MS/MS, n = 29, read-out: CL, estimate (converted)) was 3.27 mL/min, the “BSA-normalized CL” value ([1]; this study, final PopPK model) was 0.248 L/h/m^2 and the “BSA-normalized V1” value ([1]; this study, final PopPK model) was 2.81 L/m^2. The “Elimination rate constant (ke)” value ([1]; this study, final PopPK model) was 0.088 h⁻¹, the “The effect of AST on Q, final estimate” value ([2]; exponent on AST/52.5) was 0.898 and the clearance ([2]; human, plasma, iv, n = 14, CL = 0.477 x (weight/70)^0.75, read-out: CL, final estimate (converted)) was 7.95 mL/min. The “Q, final estimate” value ([2]; n = 14, Q = 0.512 x (weight/70)^0.75 x (AST/52.5)^0.898) was 0.512 L/h, the “V1, final estimate” value ([2]; n = 14, V1 = 11.8 x (weight/70)^1) was 11.8 L and the “V2, final estimate” value ([2]; n = 14, V2 = 19.2 x (weight/70)^1) was 19.2 L. The “Culture conversion in patients with positive fungal culture” value [3] was “all of them eventually achieved successful culture conversion to negative”, the “Elimination rate constant (ke), median” value ([4]; other four pediatric studies) was 0.0875 h⁻¹ and the “Elimination rate constant (ke), range” value ([4]; other four pediatric studies) was 0.074 to 0.101 h⁻¹. For the same compound, the “BSA-normalized clearance, median” value [4, 5] was 0.208 L/h/m^2, the “BSA-normalized clearance, range” value [4, 5] was 0.126–0.21 L/h/m^2 and the “BSA-normalized volume of distribution (V1), median” value [4, 5] was 2.19 L/m^2. For the same compound, the “BSA-normalized volume of distribution (V1), range” value [4, 5] was 1.72–2.62 L/m^2.
